Results as given in patent US7901893B2, “NPC1L1 (NPC3) and methods of identifying ligands thereof” (Merck Sharp & Dohme Corp., priority 2004, dated 2011).

Columns and labels:
[1] = biological target: T1, human NPC1L1 (Homo sapiens, UniProt Q9UHC9, G1187D/M616T/T1073A); assay: ^35S-2 competition binding, human NPC1L1 transfected CHO cells; design: expressed in transfected cells; host or cells: CHO cells (pCDNA3, XbaI/NotI fragment); settings: for Kd: 5 nM ^35S-2, 2 hours at 37° C., read-out: affinity (Kd) for human recombinant NPC1L1
T1 sequence (Q9UHC9 22-1332 isoform Q9UHC9-2 M616T/T1046A/G1160D limits assumed): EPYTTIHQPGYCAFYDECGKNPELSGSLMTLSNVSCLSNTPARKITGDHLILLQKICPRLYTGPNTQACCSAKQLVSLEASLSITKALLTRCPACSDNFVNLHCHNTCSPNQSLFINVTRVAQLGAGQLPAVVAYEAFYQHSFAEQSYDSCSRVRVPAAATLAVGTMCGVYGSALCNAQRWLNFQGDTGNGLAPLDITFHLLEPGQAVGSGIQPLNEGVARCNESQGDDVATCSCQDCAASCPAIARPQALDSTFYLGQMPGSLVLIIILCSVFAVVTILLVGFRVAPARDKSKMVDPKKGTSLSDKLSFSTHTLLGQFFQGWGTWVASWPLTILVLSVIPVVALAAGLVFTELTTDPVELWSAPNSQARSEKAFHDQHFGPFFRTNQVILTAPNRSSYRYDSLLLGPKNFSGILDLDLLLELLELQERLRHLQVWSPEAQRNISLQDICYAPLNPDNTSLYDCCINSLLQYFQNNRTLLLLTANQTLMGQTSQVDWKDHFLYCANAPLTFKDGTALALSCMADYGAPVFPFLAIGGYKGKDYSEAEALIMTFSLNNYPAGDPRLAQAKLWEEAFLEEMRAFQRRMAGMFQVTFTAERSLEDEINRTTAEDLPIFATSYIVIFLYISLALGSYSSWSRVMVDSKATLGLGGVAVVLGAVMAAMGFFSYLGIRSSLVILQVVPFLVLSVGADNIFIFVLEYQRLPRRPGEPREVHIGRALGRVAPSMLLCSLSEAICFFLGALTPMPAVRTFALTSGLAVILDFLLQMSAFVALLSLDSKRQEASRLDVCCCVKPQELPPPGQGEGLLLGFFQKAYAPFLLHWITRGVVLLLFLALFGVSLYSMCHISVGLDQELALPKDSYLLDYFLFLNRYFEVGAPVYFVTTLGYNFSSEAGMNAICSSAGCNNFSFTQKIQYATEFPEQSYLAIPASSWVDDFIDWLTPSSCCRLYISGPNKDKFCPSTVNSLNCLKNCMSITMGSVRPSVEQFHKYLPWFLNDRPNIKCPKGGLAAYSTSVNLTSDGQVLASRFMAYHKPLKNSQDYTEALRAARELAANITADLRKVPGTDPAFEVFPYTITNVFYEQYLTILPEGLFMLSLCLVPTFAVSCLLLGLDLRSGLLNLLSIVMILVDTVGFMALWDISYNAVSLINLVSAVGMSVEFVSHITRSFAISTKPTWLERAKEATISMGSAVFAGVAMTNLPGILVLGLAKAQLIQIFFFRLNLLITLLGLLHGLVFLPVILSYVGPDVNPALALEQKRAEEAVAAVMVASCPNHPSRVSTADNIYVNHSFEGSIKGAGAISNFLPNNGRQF
Procedure: Human NPC1L1 transfected CHO cells (˜600,000 cells/assay) were incubated with 5 nM ^35S-2 (˜1 million dpm/assay) in buffer A for 2 hours at 37° C. in the absence or presence of increasing concentrations of EZE-glucuronide (compound 1), compounds 2, 3, 5, 6, or 8.

[2] = biological target: T2, rhesus brush border membrane vesicles (Macaca mulatta, UniProt A0MJA5); assay: biochemical
T2 sequence (A0MJA5 1-1332): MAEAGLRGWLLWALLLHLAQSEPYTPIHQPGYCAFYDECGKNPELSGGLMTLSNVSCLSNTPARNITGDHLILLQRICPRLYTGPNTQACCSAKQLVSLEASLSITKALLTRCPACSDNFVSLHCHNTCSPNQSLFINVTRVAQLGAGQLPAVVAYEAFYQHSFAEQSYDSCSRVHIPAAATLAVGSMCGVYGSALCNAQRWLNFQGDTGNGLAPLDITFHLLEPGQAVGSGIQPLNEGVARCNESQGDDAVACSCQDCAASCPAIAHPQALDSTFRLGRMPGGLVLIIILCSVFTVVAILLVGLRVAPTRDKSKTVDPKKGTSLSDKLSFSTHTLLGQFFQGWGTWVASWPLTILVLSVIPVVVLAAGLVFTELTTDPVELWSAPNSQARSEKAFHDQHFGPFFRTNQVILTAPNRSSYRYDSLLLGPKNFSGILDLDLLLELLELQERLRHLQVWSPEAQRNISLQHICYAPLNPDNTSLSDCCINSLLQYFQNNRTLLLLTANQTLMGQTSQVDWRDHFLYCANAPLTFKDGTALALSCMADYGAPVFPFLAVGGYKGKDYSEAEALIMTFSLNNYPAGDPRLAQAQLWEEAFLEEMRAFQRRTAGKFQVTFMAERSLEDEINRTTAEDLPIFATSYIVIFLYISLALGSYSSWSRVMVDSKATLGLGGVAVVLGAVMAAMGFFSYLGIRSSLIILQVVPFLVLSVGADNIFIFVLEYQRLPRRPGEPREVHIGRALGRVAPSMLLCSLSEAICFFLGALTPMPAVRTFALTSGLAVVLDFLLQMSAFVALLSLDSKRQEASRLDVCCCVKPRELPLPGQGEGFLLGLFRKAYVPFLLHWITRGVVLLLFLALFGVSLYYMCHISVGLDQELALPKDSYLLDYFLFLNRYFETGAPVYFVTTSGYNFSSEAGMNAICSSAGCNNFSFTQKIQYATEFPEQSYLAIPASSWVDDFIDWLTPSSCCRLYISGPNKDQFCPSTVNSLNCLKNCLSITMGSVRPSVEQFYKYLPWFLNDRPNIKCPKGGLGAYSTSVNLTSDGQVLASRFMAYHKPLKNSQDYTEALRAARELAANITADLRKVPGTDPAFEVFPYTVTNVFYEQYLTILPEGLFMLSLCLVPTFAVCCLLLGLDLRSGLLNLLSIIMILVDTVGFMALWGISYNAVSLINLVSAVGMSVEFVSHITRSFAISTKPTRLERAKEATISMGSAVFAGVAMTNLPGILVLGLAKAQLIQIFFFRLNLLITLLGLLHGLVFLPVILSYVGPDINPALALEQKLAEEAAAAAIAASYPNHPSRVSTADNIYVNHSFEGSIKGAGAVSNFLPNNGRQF
Procedure: The intestines from freshly sacrificed animals were cut into segments, perfused with ice-cold saline buffer (Buffer A: 26 mM NaHCO3, 0.96 mM NaH2PO4, 5 mM HEPES, 5.5 mM glucose, 117 mM NaCl, 5.4 mM KCl, pH=7.4), placed on cold glass plates, opened longitudinally, and the mucosa scraped with glass microscope slips. This mucosa could be used fresh or frozen with identical results. To prepare the membranes, the mucosal scrapings were resuspended in 20 volumes of cold buffer consisting of 300 mM D-mannitol, 5 mM EGTA, 12 mM Tris, pH 7.4 with HCl, and containing 0.1 mM PMSF and a 1% dilution of a protease inhibitor cocktail (set 1, Calbiochem). They were homogenized using a Polytron at medium speed on ice until inspection with a microscope indicated complete cell lysis. Then, solid MgCl2 was added slowly with stirring to a final concentration of 10 mM, and the solution was kept stirring on ice for 15 min. Cellular debris was removed by centrifugation for 15 min at 3,000 g, and the membranes were recovered by centrifugation for 60 min at 48,000 g. The membranes were further rinsed by re-suspension in a buffer containing 50 mM D-mannitol, 5 mM EGTA, and 2 mM Tris at pH 7.40, and centrifugation for 60 min at 48,000 g. The final pellet was resuspended in 120 mM NaCl and 20 mM Tris at pH 7.40 to a concentration of ˜10-20 mg protein/ml, aliquoted, frozen in liquid nitrogen, and stored at −80 C. The activity was stable indefinitely and could be freeze-thawed with minimal loss of activity.
Binding assay. Assays were conducted in 12×75 mm glass test tubes and total volume 20-100 ul. In general, frozen membranes were diluted in buffer A or buffer A containing 0.03% taurocholate and 0.05% digitonin to a final concentration of 0.02 to 5 mg/ml. […] Competing ligands were likewise added as DMSO solutions to give a total 2-10% organic solvent content. […] At least 2 components of buffer A, the bicarbonate and phosphate salts, were later found to be inconsequential and were routinely omitted.
Bound ligand was quantified by single-tube vacuum filtration using GF/C glass fiber filters. […] Filtration was accomplished by adding 2.5 ml of ice cold buffer (120 mM NaCl, 0.1% sodium cholate, and 20 mM MES at pH 6.70) to the assay tube, pouring the mixture through the filter, and then rinsing the tube and filter twice more with another 2×2.5 ml buffer. The filters were counted in 7 ml vials using Packard DM liquid scintillation fluid.
Data analysis. Data from saturation experiments were subjected to a Scatchard analysis, and linear regression was performed to yield the equilibrium dissociation constant (Kd) and maximum receptor concentration (Bmax). […] Data from competition experiments were analyzed and IC50 values determined from Hill plots of the binding data.

Row | Compound | Kd [1] [nM] | potency relative to ezetimibe glucuronide (1) ([1]; human recombinant NPC1L1) | Ki [2] [nM]
1 | CS(=O)(=O)NCC#Cc1ccc(N2C(=O)[C@H](CC[C@H](O)c3ccc(F)cc3)[C@H]2c2ccc(O[C@@H]3O[C@H](C(=O)O)[C@@H](O)[C@H](O)[C@H]3O)cc2)cc1 [Compound 2, 4-[(2S,3R)-3-[(3S)-3 (4-fluorophenyl)-3-hydroxypropyl]-1-(4-{3-[(methylsulfonyl)amino]prop-1-yn-1-yl}phenyl)-4-oxoazetidin-2-yl]phenyl β-D-glucopyranosiduronic acid] | 21 | approximately 50 fold | 38
2 | O=C(O)[C@H]1O[C@@H](Oc2ccc([C@@H]3[C@@H](CC[C@H](O)c4ccc(F)cc4)C(=O)N3c3ccc(F)cc3)cc2)[C@H](O)[C@@H](O)[C@@H]1O [Compound 1, Ezetimibe glucuronide] | 907 | – | 39
